Measured values as given in patent publication US20190055517A1, “Cell Line of M2c Macrophage and Its Applications” (National Pingtung University of Science and Technology, priority 2017, published 2019).

Columns and labels:
[1] = test system: Raw264.7 macrophages; assay: VEGF-A protein in conditioned medium by ELISA; assay type: cell-based, murine; conditions: baicalin 50 μM, 48 hours, p<0.05, FIG. 13
Protocol: In this example, experiment was performed to further examine whether […] cells treated with baicalin will express VEGF-A protein. Add LPS (1 μg/ml), baicalin (50 μM) and IL-4 (10 ng/ml) respectively to medium culturing […]; Raw264.7 macrophages (ATCC, USA) and culture for 48 hours. Collect the conditioned medium and quantify VEGF-A protein by EUSA (Mouse VEGF EUSA Kit, Code: EK0541, BosterBio, CA, USA). Control group is cultured in the medium (90% DMEM+10% FBS) without any mentioned drugs. […] […] macrophage treated with baicalin can promote macrophage to secrete VEGF-A protein and the efficacy is greater than IL-4.

[2] = test system: murine M2 macrophage; assay: Macrophage phenotype by flow cytometry (CD86, CD206) after drug-induced differentiation; assay type: cell-based; conditions: conditions of chart 2, p<0.05, FIG. 3
Protocol: Use PBS containing 0.5% BSA to flush out bone marrow cells from murine (C57BL/6J, 8-20 weeks, Taiwan National Laboratory Animal Center) femur, then use Ficoll-Hypaque (GE healthcare, SWEDEN) to isolate monocytes.
Then, incubate 2×10^6 monocytes in 50 ng/ml M-CSF contained RPMI 1640 (10% FCS) medium under 37° c., 5% CO2 for seven days to induce M2 macrophage polarization. On the eighth day, collect 2×10^5 M2 macrophage and incubate them in RPMI 1640 (10% FCS) medium with Baicalin (50 μM, Tokyo Chemical Industry, JAPAN) for 24 hours. Baicalin will induce M2 macrophage to differentiate into M2C macrophage.
(§1) Embodiment 1 is prepared by the steps described above, isolate monocytes from murine bone marrow and use M-CSF to induce differentiation of M2 macrophage, and then use baicalin to induce M2C macrophage polarization. In comparison 1, incubate murine M2 macrophage in RPMI 1640 (10% FCS) containing LPS (lipopolysaccharide, 1 μg/ml, Sigma-Aldrich) for 2 hours. In comparison 2, incubate murine M2 macrophage in medium containing IL-4 ([…] Guidance System, Cambridge, UK) for 24 hours. The control group of M2 macrophage is incubated in RPMI 1640 (10% FCS) without any drugs. The conditions are shown below in chart 2.
(§2) After induced differentiation is complete, use flow cytometry to analyse the macrophage phenotype, in the meantime, also use real time PCR (qPCR) to observe mRNA expression level of each gene.
FIG. 2˜4 show results of macrophage phenotypes analysed by flow cytometry.

[3] = test system: murine M2 macrophage; assay: Phagocytosis of FITC-Latex beads with PE-anti-MERTK staining (flow cytometry, fluorescence microscopy); assay type: cell-based
Protocol: In this example, experiment was performed to evaluate the effect of baicalin induced differentiated […] macrophages in promoting phagocytosis. Treatment conditions of drugs in each group is listed in chart 2, and control group is cultured in RPMI1640 (10% FCS) without any drugs. After treatment, collect 5×10^5 treated cells respectively and add 50 μl FITC-Latex beads (Phagocytosis assay kit (IgG FITC), Cayman Chemical, USA.) to perform phagocytosis experiment for 24 hours, and then use PE-anti-MERTK antibody to mark the cells and observe the fluorescence expression with flow cytometry.

[4] = test system: murine M2 macrophage; assay: mRNA expression level of each gene by real time PCR (qPCR) after induced differentiation; assay type: cell-based; conditions: for IL-6 mRNA expression level: conditions of chart 2, FIG. 6
Protocol: as §1, §2
TNF-Alpha: M1 macrophage expression gene IRF5: M1 macrophage polarization promoting gene IRF4: M2 macrophage polarization promoting gene ARG1 (Arginase-1): M2a macrophage molecular marker IL-10: cytokine that promotes M2 macrophage polarization and inhibits inflammation IL-6: cytokine that promotes inflammation and also serves as M2b macrophage molecular marker. MERTK: a gene that serves as M2C macrophage molecular marker and promotes phagocytosis PTX3: a gene that serves as M2C macrophage molecular marker and promotes phagocytosis VEGF-A: vascular endothelial growth factor PD-L1: a gene that regulates T cell and promotes tissue autoimmune tolerance

[5] = test system: murine M2 macrophage; assay: Macrophage surface protein MERTK expression by flow cytometry; assay type: cell-based; conditions: versus control, LPS and IL-4 groups, p<0.05, FIG. 15
Protocol: as §1
In this example, experiment was performed to further test whether M2C treated by baicalin can express MERTK protein. Using flow cytometry to evaluate macrophage surface protein MERTK expression level in embodiment 1, comparison 1, 2, and the control group is cultured in RPMI 1640 (10% FCS) without any drugs. Result was shown in FIG. 14, after fluorescence staining, fluorescence MERTK marker binding was detected in approximately 80% of cells in every group. […] M2C cells treated with baicalin can promote macrophages to express MERTK protein, and the efficacy is greater than LPS and IL-4.

[6] = conditions of chart 2, P<0.05, FIG. 7 and FIG. 8
[7] = conditions of chart 2, p<0.05, FIG. 5

O=C(O)[C@H]1O[C@@H](Oc2cc3oc(-c4ccccc4)cc(=O)c3c(O)c2O)[C@H](O)[C@@H](O)[C@@H]1O [Baicalin]
VEGF-A protein detected in conditioned medium [1]: higher than control group and other groups treated with other drugs
percentage of cells expressing CD86 and CD206 [2]: lower than both comparison 1 and 2
percentage of cells that phagocytosed the beads ([3]; FITC-Latex beads 24 hours, FIG. 16): approximately 30%
percentage of cells that phagocytosed beads and also express MERTK protein ([3]; FITC-Latex beads 24 hours, PE-anti-MERTK, FIG. 17): 30%
MERTK fluorescence distribution of cells after phagocytosing FITC-Latex beads ([3]; fluorescence microscope, PE-MERTK, FIG. 18): express MERTK on cell membrane
IL-6 mRNA expression level [4]: significantly lower than comparison 1
IL-6 mRNA expression level ([4]; listed as embodiment 1): low
IL-10 mRNA expression level ([4]; conditions of chart 2, P<0.05, FIG. 6): significantly higher than comparison 1 and 2
MERTK mRNA expression level [4, 6]: significantly higher than control, comparison 1 and 2
PD-L1 mRNA expression level [4, 6]: significantly higher than control, comparison 1 and 2
PTX3 mRNA expression level [4, 6]: significantly higher than control, comparison 1 and 2
VEGF-A mRNA expression level [4, 6]: significantly higher than control, comparison 1 and 2
IRF4 mRNA expression level [4, 7]: significantly lower than comparison 2
IRF5 mRNA expression level [4, 7]: significantly lower than comparison 1
TNF-Alpha mRNA expression level [4, 7]: significantly lower than comparison 1
ARG1 mRNA expression level ([4]; conditions of chart 2, p<0.05, FIG. 6): significantly lower than comparison 2
average MERTK expression level in one single cell (mean fluorescence intensity) [5]: two times higher
